Laboratory results from patent US11702411B2, “Pyridine, pyrazine, and triazine compounds as allosteric SHP2 inhibitors” (Revolution Medicines, Inc., priority 2017, dated 2023).

These molecules were tested against SHP2 (Homo sapiens (Human), UniProt Q06124) (assay: SHP2 allosteric inhibition assay (DiFMUP prompt fluorescence, activating peptide)). Settings: 0.2 nM SHP2, 0.5 μM activating peptide, DiFMUP substrate; read-out: SHP2 Allosteric IC50.
SHP2, sequence (Q06124 whole entry): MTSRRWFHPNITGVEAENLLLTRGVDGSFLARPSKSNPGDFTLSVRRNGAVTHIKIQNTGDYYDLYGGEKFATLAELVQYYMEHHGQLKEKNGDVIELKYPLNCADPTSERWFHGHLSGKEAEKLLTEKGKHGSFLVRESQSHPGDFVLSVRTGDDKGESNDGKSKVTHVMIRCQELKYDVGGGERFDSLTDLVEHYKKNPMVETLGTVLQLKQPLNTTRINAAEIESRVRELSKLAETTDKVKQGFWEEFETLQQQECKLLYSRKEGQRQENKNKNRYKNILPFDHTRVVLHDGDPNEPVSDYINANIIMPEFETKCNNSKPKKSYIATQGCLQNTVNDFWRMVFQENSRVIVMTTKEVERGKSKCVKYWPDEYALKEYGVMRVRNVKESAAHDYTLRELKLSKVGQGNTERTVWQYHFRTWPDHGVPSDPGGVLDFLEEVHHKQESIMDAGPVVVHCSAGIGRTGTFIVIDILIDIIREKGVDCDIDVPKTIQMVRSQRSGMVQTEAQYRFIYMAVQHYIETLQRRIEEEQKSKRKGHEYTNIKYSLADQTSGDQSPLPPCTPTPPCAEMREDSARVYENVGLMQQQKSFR
Assay type: biochemical
Excerpt: Without wishing to be bound by theory, SHP is allosterically activated through binding of bis-tyrosyl-phosphorylated peptides to its Src Homology 2 (SH2) domains. The latter activation step leads to the release of the auto-inhibitory interface of SHP2, which in turn renders the SHP2 protein tyrosine phosphatase (PTP) active and available for substrate recognition and reaction catalysis. The catalytic activity of SHP2 was monitored using the surrogate substrate DiFMUP in a prompt fluorescence assay format.
The phosphatase reactions were performed at room temperature in 96-well black polystyrene plate, flat bottom, non-binding surface (Corning, Cat #3650) using a final reaction volume of 100 μL and the following assay buffer conditions: 50 mM HEPES, pH 7.2, 100 mM NaCl, 0.5 mM EDTA, 0.05% P-20, 1 mM DTT.
The inhibition of SHP2 by compounds of the present disclosure (concentrations varying from 0.00005-10 μM) was monitored using an assay in which 0.2 nM of SHP2 was incubated with 0.5 μM of Activating Peptide 1 (sequence: H2N-LN(pY)IDLDLV(dPEG8)LST(pY)ASINFQK-amide) or Activating Peptide 2 (sequence: H2N-LN(pY)AQLWHA(dPEG8)LTI(pY)ATIRRF-amide). After 30-60-minutes incubation at 25° C., the surrogate substrate DiFMUP (Invitrogen, Cat #D6567) was added to the reaction and activity was determined by a kinetic read using a microplate reader (Envision, Perkin-Elmer or Spectramax M5, Molecular Devices). The excitation and emission wavelengths were 340 nm and 450 nm, respectively. Initial rates were determined from a linear fit of the data, and the inhibitor dose response curves were analyzed using normalized IC50 regression curve fitting with control based normalization.
For `COc1cccc(Sc2cnc(N3CCC4(CC3)CO[C@@H](C)[C@H]4N)c(CO)n2)c1Cl` [Compound 25, {3-[(3S,4S)-4-amino-3-methyl-2-oxa-8-azaspiro[4.5]decan-8-yl]-6-[(2-chloro-3-methoxyphenyl)sulfanyl]pyrazin-2-yl}methanol], the IC50 was ≤ 50 nM.
`C[C@@H]1OCC2(CCN(c3ncc(-c4c(Cl)ccc(Cl)c4Cl)nc3CO)CC2)[C@@H]1N` [Compound 18, {3-[(3S,4S)-4-amino-3-methyl-2-oxa-8-azaspiro[4.5]decan-8-yl]-6-(2,3,6-trichlorophenyl)pyrazin-2-yl}methanol] was tested, and the IC50 was 50 to 500 nM.
`C[C@@H]1OCC2(CCN(c3ncc(-c4ccc5c(c4Cl)OCCC5)nc3CO)CC2)[C@@H]1N` [Compound 16, {3-[(3S,4S)-4-amino-3-methyl-2-oxa-8-azaspiro[4.5]decan-8-yl]-6-(8-chloro-3,4-dihydro-2H-1-benzopyran-7-yl)pyrazin-2-yl}methanol] showed an IC50 of 50 to 500 nM.
Molecule `C[C@@H]1OCC2(CCN(c3ncc(-c4ccc5c(c4Cl)OCC5)nc3CO)CC2)[C@@H]1N` [Compound 10, {3-[(3S,4S)-4-amino-3-methyl-2-oxa-8-azaspiro[4.5]decan-8-yl]-6-(7-chloro-2,3-dihydro-1-benzofuran-6-yl)pyrazin-2-yl}methanol] has an IC50 of 50 to 500 nM.
In the case of `C[C@@H]1OCC2(CCN(c3ncc(Sc4ccnc(N)c4Cl)nc3CO)CC2)[C@@H]1N` [Compound 31, {6-[(2-amino-3-chloropyridin-4-yl)sulfanyl]-3-[(3S,4S)-4-amino-3-methyl-2-oxa-8-azaspiro[4.5]decan-8-yl]pyrazin-2-yl}methanol], the IC50 is reported as ≤ 50 nM.
`N[C@@H]1CCCC12CCN(c1ncc(-c3cccc(Cl)c3Cl)nc1C(F)F)CC2` [Compound 34, (1R)-8-[5-(2,3-dichlorophenyl)-3-(difluoromethyl)pyrazin-2-yl]-8-azaspiro[4.5]decan-1-amine] was tested, and the IC50 was 50 to 500 nM.
In the case of `COc1ccc(Cl)c(Cl)c1-c1cnc(N2CCC3(CC2)CO[C@@H](C)[C@H]3N)c(CO)n1` [Compound 7, {3-[(3S,4S)-4-amino-3-methyl-2-oxa-8-azaspiro[4.5]decan-8-yl]-6-(2,3-dichloro-6-methoxyphenyl)pyrazin-2-yl}methanol], the IC50 is reported as > 500 nM.
With `C[C@@H]1OCC2(CCN(c3ncc(-c4ccc5nccnc5c4Cl)nc3CO)CC2)[C@@H]1N` [Compound 9, {3-[(3S,4S)-4-amino-3-methyl-2-oxa-8-azaspiro[4.5]decan-8-yl]-6-(5-chloroquinoxalin-6-yl)pyrazin-2-yl}methanol] the IC50 was 50 to 500 nM.
Molecule `C[C@@H]1OCC2(CCN(c3ncc(-c4ccc5[nH]ncc5c4)nc3CO)CC2)[C@@H]1N` [Compound 20, {3-[(3S,4S)-4-amino-3-methyl-2-oxa-8-azaspiro[4.5]decan-8-yl]-6-(2H-indazol-5-yl)pyrazin-2-yl}methanol] has an IC50 of 50 to 500 nM.
Molecule `CC1(N)CCN(c2ncc(-c3cccc(Cl)c3Cl)nc2CO)CC1` [Compound 3, [3-(4-amino-4-methylpiperidin-1-yl)-6-(2,3-dichlorophenyl)pyrazin-2-yl]methanol] has an IC50 of 50 to 500 nM.
For `COc1ccc(F)c(-c2cnc(N3CCC4(CC3)CO[C@@H](C)[C@H]4N)c(CO)n2)c1Cl` [Compound 17, {3-[(3S,4S)-4-amino-3-methyl-2-oxa-8-azaspiro[4.5]decan-8-yl]-6-(2-chloro-6-fluoro-3-methoxyphenyl)pyrazin-2-yl}methanol], the IC50 was > 500 nM.
For `C[C@@H]1OCC2(CCN(c3ncc(Sc4ccnc(N5CC(O)C5)c4Cl)nc3CO)CC2)[C@@H]1N` [Compound 29, 1-[4-({5-[(3S,4S)-4-amino-3-methyl-2-oxa-8-azaspiro[4.5]decan-8-yl]-6-(hydroxymethyl)pyrazin-2-yl}sulfanyl)-3-chloropyridin-2-yl]azetidin-3-ol], the IC50 was ≤ 50 nM.
`C[C@@H]1OCC2(CCN(c3ncc(-c4c(Cl)c(Cl)cc5c4OCO5)nc3CO)CC2)[C@@H]1N` [Compound 6, {3-[(3S,4S)-4-amino-3-methyl-2-oxa-8-azaspiro[4.5]decan-8-yl]-6-(5,6-dichloro-2H-1,3-benzodioxol-4-yl)pyrazin-2-yl}methanol] was tested, and the IC50 was 50 to 500 nM.
With `C[C@@H]1OCC2(CCN(c3ncc(-c4cccc(Cl)c4Cl)nc3C(F)F)CC2)[C@@H]1N` [Compound 35, (3S,4S)-8-[5-(2,3-dichlorophenyl)-3-(difluoromethyl)pyrazin-2-yl]-3-methyl-2-oxa-8-azaspiro[4.5]decan-4-amine] the IC50 was 50 to 500 nM.
`N[C@@H]1CCCC12CCN(c1ncc(-c3ccnc(Cl)c3Cl)nc1CO)CC2` [Compound 1, (3-[(1R)-1-amino-8-azaspiro[4.5]decan-8-yl]-6-(2,3-dichloropyridin-4-yl)pyrazin-2-yl)methanol] gave an IC50 of 50 to 500 nM.
In the case of `C[C@@H]1OCC2(CCN(c3ncc(-c4cc(Cl)c5cn[nH]c5c4)nc3CO)CC2)[C@@H]1N` [Compound 13, {3-[(3S,4S)-4-amino-3-methyl-2-oxa-8-azaspiro[4.5]decan-8-yl]-6-(4-chloro-2H-indazol-6-yl)pyrazin-2-yl}methanol], the IC50 is reported as 50 to 500 nM.
In the case of `C[C@@H]1OCC2(CCN(c3ncc(-c4ccc5nccnc5c4)nc3CO)CC2)[C@@H]1N` [Compound 12, {3-[(3S,4S)-4-amino-3-methyl-2-oxa-8-azaspiro[4.5]decan-8-yl]-6-(quinoxalin-6-yl)pyrazin-2-yl}methanol], the IC50 is reported as > 500 nM.
For `CC1(N)CCN(c2ncc(Sc3ccnc(N)c3Cl)nc2CO)CC1` [Compound 4, (6-((2-amino-3-chloropyridin-4-yl)thio)-3-(4-amino-4-methylpiperidin-1-yl)pyrazin-2-yl)methanol], the IC50 was ≤ 50 nM.
`C[C@@H]1OCC2(CCN(c3ncc(-c4cc5[nH]ncc5cc4Cl)nc3CO)CC2)[C@@H]1N` [Compound 14, {3-[(3S,4S)-4-amino-3-methyl-2-oxa-8-azaspiro[4.5]decan-8-yl]-6-(5-chloro-2H-indazol-6-yl)pyrazin-2-yl}methanol] was tested, and the IC50 was 50 to 500 nM.
With `C[C@@H]1OCC2(CCN(c3ncc(-c4cc5ccccc5n4C)nc3CO)CC2)[C@@H]1N` [Compound 15, {3-[(3S,4S)-4-amino-3-methyl-2-oxa-8-azaspiro[4.5]decan-8-yl]-6-(1-methyl-1H-indol-2-yl)pyrazin-2-yl}methanol] the IC50 was ≤ 50 nM.
For `C[C@@H]1OCC2(CCN(c3ncc(Sc4cccc(C#N)c4Cl)nc3CO)CC2)[C@@H]1N` [Compound 22, 3-({5-[(3S,4S)-4-amino-3-methyl-2-oxa-8-azaspiro[4.5]decan-8-yl]-6-(hydroxymethyl)pyrazin-2-yl}sulfanyl)-2-chlorobenzonitrile], the IC50 was ≤ 50 nM.
`C[C@@H]1OCC2(CCN(c3ccc(Sc4ccnc(N)c4Cl)nc3CO)CC2)[C@@H]1N` [Compound 5, [6-[(2-amino-3-chloro-4-pyridyl)sulfanyl]-3-[(3S,4S)-4-amino-3-methyl-2-oxa-8-azaspiro[4.5]decan-8-yl]-2-pyridyl]methanol] was tested, and the IC50 was ≤ 50 nM.
`C[C@@H]1OCC2(CCN(c3ncc(-c4cccc5cc[nH]c45)nc3CO)CC2)[C@@H]1N` [Compound 11, {3-[(3S,4S)-4-amino-3-methyl-2-oxa-8-azaspiro[4.5]decan-8-yl]-6-(1H-indol-7-yl)pyrazin-2-yl}methanol] was tested, and the IC50 was ≤ 50 nM.
In the case of `C[C@@H]1OCC2(CCN(c3ncc(Sc4cc(N)ncc4Cl)nc3CO)CC2)[C@@H]1N` [Compound 32, {3-[(3S,4S)-4-amino-3-methyl-2-oxa-8-azaspiro[4.5]decan-8-yl]-6-[(2-amino-5-chloropyridin-4-yl)sulfanyl]pyrazin-2-yl}methanol], the IC50 is reported as ≤ 50 nM.
Work on `N[C@@H]1CCCC12CCN(c1ncc(-c3cccc(Cl)c3Cl)nc1CO)CC2` [Compound 2, (3-[(1R)-1-amino-8-azaspiro[4.5]decan-8-yl]-6-(2,3-dichlorophenyl)pyrazin-2-yl)methanol] yielded an IC50 of 50 to 500 nM.
In the case of `C[C@@H]1OCC2(CCN(c3ncc(Sc4ccnc(N5CC(S(C)(=O)=O)C5)c4Cl)nc3CO)CC2)[C@@H]1N` [Compound 26, {3-[(3S,4S)-4-amino-3-methyl-2-oxa-8-azaspiro[4.5]decan-8-yl]-6-{[3-chloro-2-(3-methanesulfonylazetidin-1-yl)pyridin-4-yl]sulfanyl}pyrazin-2-yl}methanol], the IC50 is reported as ≤ 50 nM.
With `C[C@@H]1OCC2(CCN(c3ncc(Sc4ccnc(C#N)c4Cl)nc3CO)CC2)[C@@H]1N` [Compound 23, 4-({5-[(3S,4S)-4-amino-3-methyl-2-oxa-8-azaspiro[4.5]decan-8-yl]-6-(hydroxymethyl)pyrazin-2-yl}sulfanyl)-3-chloropyridine-2-carbonitrile] the IC50 was ≤ 50 nM.
`C[C@@H]1OCC2(CCN(c3ncc(-c4c(O)ccc(Cl)c4Cl)nc3CO)CC2)[C@@H]1N` [Compound 8, 2-{5-[(3S,4S)-4-amino-3-methyl-2-oxa-8-azaspiro[4.5]decan-8-yl]-6-(hydroxymethyl)pyrazin-2-yl}-3,4-dichlorophenol] gave an IC50 of 50 to 500 nM.
With `C[C@@H]1OCC2(CCN(c3ncc(Sc4cccc(Cl)c4Cl)nc3CO)CC2)[C@@H]1N` [Compound 30, {3-[(3S,4S)-4-amino-3-methyl-2-oxa-8-azaspiro[4.5]decan-8-yl]-6-[(2,3-dichlorophenyl)sulfanyl]pyrazin-2-yl}methanol] the IC50 was ≤ 50 nM.

Same assay, conditions: 0.2 nM SHP2, 0.5 μM activating peptide, DiFMUP substrate; read-out: SHP2 IC50
Molecule `CC1(N)CCN(c2ncc(-c3cccc(Cl)c3Cl)nc2CO)CC1` [Compound 3, [3-(4-amino-4-methylpiperidin-1-yl)-6-(2,3-dichlorophenyl)pyrazin-2-yl]methanol] has an IC50 of 461 nM.
With `N[C@@H]1CCCC12CCN(c1ncc(-c3ccnc(Cl)c3Cl)nc1CO)CC2` [Compound 1, (3-[(1R)-1-amino-8-azaspiro[4.5]decan-8-yl]-6-(2,3-dichloropyridin-4-yl)pyrazin-2-yl)methanol] the IC50 was 145 nM.
In the case of `N[C@@H]1CCCC12CCN(c1ncc(-c3cccc(Cl)c3Cl)nc1CO)CC2` [Compound 2, (3-[(1R)-1-amino-8-azaspiro[4.5]decan-8-yl]-6-(2,3-dichlorophenyl)pyrazin-2-yl)methanol], the IC50 is reported as 88 nM.
